What all share (assay): SelectScreen Z-LYTE kinase activity assay (SI Table 6)
Assay type in all cases: biochemical

Experiment [1] deals with T1, protein kinases of the Z-LYTE panel (Homo sapiens, UniProt O00141).
T1 sequence (O00141 1-431): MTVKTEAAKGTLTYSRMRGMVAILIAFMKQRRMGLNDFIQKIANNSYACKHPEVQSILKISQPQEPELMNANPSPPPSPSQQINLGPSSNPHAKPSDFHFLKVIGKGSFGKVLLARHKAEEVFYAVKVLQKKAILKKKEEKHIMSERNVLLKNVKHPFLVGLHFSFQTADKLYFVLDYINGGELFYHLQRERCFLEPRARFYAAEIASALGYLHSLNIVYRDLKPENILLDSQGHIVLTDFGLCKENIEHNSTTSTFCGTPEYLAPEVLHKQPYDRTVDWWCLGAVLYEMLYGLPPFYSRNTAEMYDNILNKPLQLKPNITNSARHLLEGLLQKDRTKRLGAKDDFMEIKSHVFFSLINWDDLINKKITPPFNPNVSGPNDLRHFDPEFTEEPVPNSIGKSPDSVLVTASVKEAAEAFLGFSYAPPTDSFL
In outline: (§1)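 A counterscreen of 133 protein and 7 lipid kinases was run with one compound concentration, 1 μM 1938, in SelectScreen Adapta, Lantha or Z-LYTE assays.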

The target in experiment [2] is protein kinases of the Z-LYTE panel (Homo sapiens, UniProt P08581). In short, it runs like this: as §1
Experiment [3] addresses protein kinases of the Z-LYTE panel (Homo sapiens, UniProt P43405). In short, it runs like this:
as §1

The target of experiment [4] is protein kinases of the Z-LYTE panel (Homo sapiens, UniProt P00533, L858R/T790M). In outline:
as §1

Experiment [5] concerns the target protein kinases of the Z-LYTE panel (Homo sapiens, UniProt P54646). In outline:
as §1

Experiment [6] concerns the target T2, protein kinases of the Z-LYTE panel (Homo sapiens, UniProt O00418).
T2 sequence (O00418 1-725): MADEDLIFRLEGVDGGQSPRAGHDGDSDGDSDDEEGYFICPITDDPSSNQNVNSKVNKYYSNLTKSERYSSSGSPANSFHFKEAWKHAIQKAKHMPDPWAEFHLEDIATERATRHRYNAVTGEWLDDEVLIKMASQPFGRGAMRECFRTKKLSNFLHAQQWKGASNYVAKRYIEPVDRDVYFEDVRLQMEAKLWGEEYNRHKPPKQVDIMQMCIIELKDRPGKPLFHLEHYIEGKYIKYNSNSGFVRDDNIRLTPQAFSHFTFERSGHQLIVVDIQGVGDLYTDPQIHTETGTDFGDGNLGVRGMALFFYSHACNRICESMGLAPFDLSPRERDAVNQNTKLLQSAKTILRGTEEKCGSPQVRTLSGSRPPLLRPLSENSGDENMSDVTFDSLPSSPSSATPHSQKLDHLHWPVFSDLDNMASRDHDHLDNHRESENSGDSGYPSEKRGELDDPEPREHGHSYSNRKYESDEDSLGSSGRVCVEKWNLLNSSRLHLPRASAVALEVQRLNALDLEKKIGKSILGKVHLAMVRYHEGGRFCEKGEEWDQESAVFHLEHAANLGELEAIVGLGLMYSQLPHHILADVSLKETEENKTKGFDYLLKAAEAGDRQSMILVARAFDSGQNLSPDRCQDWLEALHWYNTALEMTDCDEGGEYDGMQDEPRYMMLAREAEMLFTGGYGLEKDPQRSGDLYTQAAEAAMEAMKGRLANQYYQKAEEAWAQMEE
In outline:
as §1

Where two headings read alike, the source gives them in different places.

Chain of protein kinases of the Z-LYTE panel (Homo sapiens, UniProt P54646) (P54646 whole entry): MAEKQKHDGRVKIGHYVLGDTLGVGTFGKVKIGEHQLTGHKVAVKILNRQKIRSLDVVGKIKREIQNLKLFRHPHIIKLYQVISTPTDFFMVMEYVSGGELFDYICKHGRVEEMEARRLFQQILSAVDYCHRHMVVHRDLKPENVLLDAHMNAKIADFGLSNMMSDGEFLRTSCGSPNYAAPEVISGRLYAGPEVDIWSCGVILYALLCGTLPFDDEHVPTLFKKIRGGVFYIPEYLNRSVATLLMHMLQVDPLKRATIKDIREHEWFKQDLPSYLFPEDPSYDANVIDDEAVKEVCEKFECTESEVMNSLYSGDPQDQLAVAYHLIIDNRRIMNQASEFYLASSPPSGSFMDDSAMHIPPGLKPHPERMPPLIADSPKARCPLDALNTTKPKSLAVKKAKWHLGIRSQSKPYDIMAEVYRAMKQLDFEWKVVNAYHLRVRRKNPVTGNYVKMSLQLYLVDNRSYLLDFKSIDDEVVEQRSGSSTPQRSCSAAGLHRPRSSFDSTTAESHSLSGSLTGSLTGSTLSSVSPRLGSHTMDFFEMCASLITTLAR
Chain of protein kinases of the Z-LYTE panel (Homo sapiens, UniProt P00533, L858R/T790M) (P00533 25-1210 T790M/L858R): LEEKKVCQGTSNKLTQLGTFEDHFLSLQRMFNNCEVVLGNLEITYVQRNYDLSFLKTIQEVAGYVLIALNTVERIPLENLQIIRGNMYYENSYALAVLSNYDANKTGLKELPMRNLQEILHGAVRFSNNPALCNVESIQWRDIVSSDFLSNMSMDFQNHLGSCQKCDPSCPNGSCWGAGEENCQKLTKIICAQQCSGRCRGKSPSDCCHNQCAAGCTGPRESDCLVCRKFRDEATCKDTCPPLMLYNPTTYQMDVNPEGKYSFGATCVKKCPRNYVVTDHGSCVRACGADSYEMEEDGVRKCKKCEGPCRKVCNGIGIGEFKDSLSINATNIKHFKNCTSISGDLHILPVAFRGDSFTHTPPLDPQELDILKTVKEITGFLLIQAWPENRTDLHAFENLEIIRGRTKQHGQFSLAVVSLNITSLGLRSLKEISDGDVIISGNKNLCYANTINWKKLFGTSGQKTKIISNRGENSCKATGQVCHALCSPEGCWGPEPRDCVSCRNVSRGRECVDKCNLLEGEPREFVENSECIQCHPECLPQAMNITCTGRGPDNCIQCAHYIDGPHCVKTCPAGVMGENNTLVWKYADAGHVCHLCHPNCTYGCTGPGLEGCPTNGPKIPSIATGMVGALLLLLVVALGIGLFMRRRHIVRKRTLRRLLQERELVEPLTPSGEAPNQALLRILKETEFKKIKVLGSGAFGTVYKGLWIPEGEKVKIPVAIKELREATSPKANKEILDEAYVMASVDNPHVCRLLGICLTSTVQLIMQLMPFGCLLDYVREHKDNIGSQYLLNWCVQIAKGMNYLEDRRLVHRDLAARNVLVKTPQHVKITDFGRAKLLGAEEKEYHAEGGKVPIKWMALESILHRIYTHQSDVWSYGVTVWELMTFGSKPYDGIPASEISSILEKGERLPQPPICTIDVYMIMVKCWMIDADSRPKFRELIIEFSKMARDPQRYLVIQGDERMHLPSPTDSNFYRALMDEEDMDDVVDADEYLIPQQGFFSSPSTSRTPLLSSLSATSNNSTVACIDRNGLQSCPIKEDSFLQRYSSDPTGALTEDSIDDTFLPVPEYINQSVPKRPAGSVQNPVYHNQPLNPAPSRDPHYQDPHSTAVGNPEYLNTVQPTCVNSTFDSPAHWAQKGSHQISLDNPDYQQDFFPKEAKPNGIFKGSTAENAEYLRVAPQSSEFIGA
Chain of protein kinases of the Z-LYTE panel (Homo sapiens, UniProt P08581) (P08581 25-1390): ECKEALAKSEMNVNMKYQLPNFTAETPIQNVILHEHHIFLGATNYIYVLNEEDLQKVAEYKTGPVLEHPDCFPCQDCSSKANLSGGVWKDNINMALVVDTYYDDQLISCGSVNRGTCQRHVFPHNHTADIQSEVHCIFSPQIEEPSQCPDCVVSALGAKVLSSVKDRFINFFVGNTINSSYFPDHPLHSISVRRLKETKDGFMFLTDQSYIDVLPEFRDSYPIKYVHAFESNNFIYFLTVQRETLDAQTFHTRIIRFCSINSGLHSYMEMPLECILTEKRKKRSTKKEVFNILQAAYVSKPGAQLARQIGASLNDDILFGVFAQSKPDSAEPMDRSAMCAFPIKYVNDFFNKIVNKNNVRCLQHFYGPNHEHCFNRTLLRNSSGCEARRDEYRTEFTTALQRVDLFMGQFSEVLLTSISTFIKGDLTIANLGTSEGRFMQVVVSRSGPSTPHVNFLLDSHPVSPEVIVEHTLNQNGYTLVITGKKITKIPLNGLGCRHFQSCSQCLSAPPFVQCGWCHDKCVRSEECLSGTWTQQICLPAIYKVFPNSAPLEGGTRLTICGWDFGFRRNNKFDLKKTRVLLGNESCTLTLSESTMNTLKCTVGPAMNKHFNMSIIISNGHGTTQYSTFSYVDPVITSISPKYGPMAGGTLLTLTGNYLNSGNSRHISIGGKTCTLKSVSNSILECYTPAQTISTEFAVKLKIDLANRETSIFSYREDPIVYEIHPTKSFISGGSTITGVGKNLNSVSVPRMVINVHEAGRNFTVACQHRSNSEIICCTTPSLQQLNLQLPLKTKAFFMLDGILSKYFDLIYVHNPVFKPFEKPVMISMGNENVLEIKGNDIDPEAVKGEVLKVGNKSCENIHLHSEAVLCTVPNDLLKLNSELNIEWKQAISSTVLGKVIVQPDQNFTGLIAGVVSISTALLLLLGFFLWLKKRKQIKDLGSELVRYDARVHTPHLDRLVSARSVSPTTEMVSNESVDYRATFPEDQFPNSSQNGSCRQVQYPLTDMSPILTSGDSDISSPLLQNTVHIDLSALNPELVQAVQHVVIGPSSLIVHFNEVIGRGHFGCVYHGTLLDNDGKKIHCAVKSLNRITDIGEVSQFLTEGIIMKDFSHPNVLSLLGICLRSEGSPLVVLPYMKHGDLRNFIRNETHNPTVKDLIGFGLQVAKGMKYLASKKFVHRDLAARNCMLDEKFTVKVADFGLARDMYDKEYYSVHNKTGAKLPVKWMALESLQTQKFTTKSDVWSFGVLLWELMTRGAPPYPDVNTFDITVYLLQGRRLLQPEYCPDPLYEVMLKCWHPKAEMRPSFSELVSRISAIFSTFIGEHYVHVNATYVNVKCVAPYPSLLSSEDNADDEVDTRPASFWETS

As to `CCN1CCN(c2ccc(Nc3cc(Nc4cccc5c4N(C(C)=O)CC5)ccn3)cc2)CC1` [Compound 1938], the inhibition (as a rule, the change of the read-out against control, counted positive when it falls) at 1 µM in experiment [1] (read-out: % Inhibition Point 1) was 4.46%; in experiment [1] (read-out: % Inhibition Point 2) it was 3.55%; in experiment [1] (read-out: % Inhibition mean), 4%; in experiment [2] (read-out: % Inhibition Point 1) it was 8%; in experiment [2] (read-out: % Inhibition Point 2), 29%; in experiment [2] (read-out: % Inhibition mean), 19%. The inhibition at 1 µM worked out at 3% in experiment [3] (read-out: % Inhibition Point 1); 3.66% in experiment [3] (read-out: % Inhibition Point 2); 3.32% in experiment [3] (read-out: % Inhibition mean); 12% in experiment [4] (read-out: % Inhibition Point 1); 12% in experiment [4] (read-out: % Inhibition Point 2); 12% in experiment [4] (read-out: % Inhibition mean). In addition, the inhibition at 1 µM is 8% in experiment [5] (read-out: % Inhibition Point 1); 7% in experiment [5] (read-out: % Inhibition Point 2); 8% in experiment [5] (read-out: % Inhibition mean); -0.0213% in experiment [6] (read-out: % Inhibition Point 1); 0.399% in experiment [6] (read-out: % Inhibition Point 2); 0.189% in experiment [6] (read-out: % Inhibition mean).

Values taken from paper PMC7614683, “A small molecule PI3Kα activator for cardioprotection and neuroregeneration” (Nature, 2023).
